Results: patent publication US5138067A, “Lipid derivatives” (Shionogi & Co. Ltd., priority 1991, dated 1992)

Test system: platelet aggregation induced by PAF
Assay: not given
Settings: known property of the reference compound; cited from earlier work

| Compound | inhibition of PAF-induced platelet aggregation (known) |
| --- | --- |
| CCCCC[C@H](O)/C=C/[C@H]1[C@H](O)CC(=O)[C@@H]1CCCCCCC(=O)O [PGE1, reference compound] | potently inhibit the PAF-induced platelet aggregation |

Test system: platelet aggregation induced by PAF
Assay: PAF-induced platelet aggregation inhibition (method of Born, aggregometer, platelet rich plasma)
Assay type: cell-based
Settings: Oryctolagus cuniculus, Platelet, 2 min, in vitro, rabbit PRP 50-55×10^4 /μl, 37° C., PAF C16 final 20 nM added 2 minutes after compound; read-out: IC50 (concentration of the test compounds which inhibit 50% platelet aggregation)
Protocol: Mature male rabbits (NIBS-JW, RABITON Institute Inc., weighing 2.2-2.5 kg) were used. […] (The total volume of blood sample in each tube was adjusted to 8 ml.)
The blood sample in each tube was gently shaken and then centrifuged for 10 minutes at 200 g at 22° C. to give platelet rich plasma (PRP). The remaining blood was further centrifuged at 3,000 rpm (about 1,900 g) for 10 minutes at 22° C. to give platelet-poor plasma (PPP).
PRP was diluted with PPP to prepare a blood sample whose platelet number was 50-55×10^4 /μl. The sample was then subjected to a platelet aggregation test.
A volume of 230 μl of PRP, whose platelet number was adjusted to 50-55×10^4 /μl, was placed in a measuring cuvette and set in the aggregometer. PRP was warmed at 37° C. for 1 minute with stirring at 1,200 rpm, and then a solution of the test compound [dimethylsulfoxide solution (1μl) of the compound+saline (9μl)] was added thereto. Exactly 2 minutes later, 10 μl of platelet activating factor (PAF, C16) (final concentration: 20 nM) was added as a platelet aggregating agent, and the change in light transmission caused by platelet aggregation was recorded.
The light transmissions of PRP and PPP were taken as 0% and 100% aggregation, respectively, and the maximum light transmission after addition of an aggregating agent was made the maximum aggregation. The inhibition rate of the platelet aggregation was expressed as the percentage of the maximum aggregation by a test compound to that by a control (Vehicle added group).

| Compound | IC50 [nM] |
| --- | --- |
| CCCCCCCCCCCCCCCCOCC(CNS(=O)(=O)CCC[n+]1cccc2ccccc21)COC (stereo not drawn) [I k3, 1-hexadecyloxy-2-methoxymethyl-3-(3-quinoliniopropylsulfonylamino)propane iodide] | 600 |
| CCCCCCCCCCCCCCCCSCC(CNS(=O)(=O)CCC[n+]1cccc2ccccc21)NC(=O)OC (stereo not drawn) [I e7, 1-hexadecylthio-2-methoxycarbonylamino-3-(3-quinoliniopropylsulfonylamino)propane iodide] | 850 |
| CCCCCCCCCCCCCCCCCCNC(=O)OCC1(CNS(=O)(=O)CCC[n+]2cccc3ccccc32)CCCO1 (stereo not drawn) [I b2, 2-octadecylcarbamoyloxymethyl-2-(3-qunoliniopropylsulfonylaminomethyl)tetrahydrofuran iodido] | 385 |
| CCCCCCCCCCCCCCCCSCC(CNS(=O)(=O)CCC[n+]1cccc2ccccc21)NC(=O)NC (stereo not drawn) [I f4] | 873 |
| CCCCC[C@H](O)/C=C/[C@H]1[C@H](O)CC(=O)[C@@H]1CCCCCCC(=O)O [PGE1, reference compound] | 259 |
| CCCCCCCCCCCCCCCCSCC(CNS(=O)(=O)CCC[N+](C)(C)C)NC(C)=O (stereo not drawn) [I g2, 2-acetamido-1-hexadecylthio-3-(3-trimethylammoniopropylsulfonylamino)propane iodide] | 14300 |
| CCCCCCCCCCCCCCCCSCC(CNS(=O)(=O)CCC[n+]1cccc2ccccc21)OC(=O)NC (stereo not drawn) [I c1, 1-hexadecylthio-2-methylcarbamoyloxy-3-(3-quinoliniopropylsulfonylamino)propane iodide] | 920 |
| CCCCCCCCCCCCCCCCSCC(CNS(=O)(=O)CCC[N+](C)(C)C)n1nnc(C)n1 (stereo not drawn) [I h1, 1-hexadecylthio-2-(5-methyl-2H-tetrazol-2-yl)-3-(3-trimethylammoniopropylsulfonylamino)propane iodide] | 23200 |
| CCCCCCCCCCCCCCCCSCC(CNS(=O)(=O)CCC[n+]1ccsc1)OC (stereo not drawn) [I a9, 1-hexadecylthio-2-methoxy-3-(3-thiazoliopropylsulfonylamino)propane iodide] | 3640 |
| CCCCCCCCCCCCCCCCCCNC(=O)OCC(CNS(=O)(=O)CCC[n+]1cccc2ccccc21)NC(=O)OC(C)(C)C (stereo not drawn) [I e6, 2-tert-butoxycarbonylamino-1-octadecylcarbamoyloxy-3-(3-quinoliniopropylsulfonylamino)propane iodide] | 3090 |
| CCCCCCCCCCCCCCCCCCNC(=O)OCC(CN(C(C)=O)S(=O)(=O)CCC[n+]1cccc2ccccc21)NC(C)=O (stereo not drawn) [I g6, 3-(N-acetyl-3-quinoliniopropylsulfonylamino)-2-acetamido-1-octadecylcarbamoyloxypropane iodide] | 1320 |
| CCCCCCCCCCCCCCCCCCNC(=O)OCC(CNS(=O)(=O)CCC[n+]1cccc2ccccc21)NC(=O)NC (stereo not drawn) [I f3, 1-octadecylcarbamoyloxy-2-(3-methylureido)-3-(3-quinoliniopropylsulfonylamino)propane iodide] | 965 |
| CCCCCCCCCCCCCCCCSCC(CNS(=O)(=O)CCC[N+](C)(C)C)COC (stereo not drawn) [I k4, 1-hexadecylthio-2-methoxymethyl-3-(3-trimethylammoniopropylsulfonylamino)propane iodide] | 80300 |
| CCCCCCCCCCCCCCCCOCC(CNS(=O)(=O)CCC[N+](C)(C)C)OC (stereo not drawn) [I a10, 1-hexadecyloxy-2-methoxy-3-(3-trimethylammoniopropylsulfonylamino)propane iodide] | 79900 |
| CCCCCCCCCCCCCCCCSCC(CNS(=O)(=O)CCC[n+]1cccc2ccccc21)NC(=O)OC(C)(C)C (stereo not drawn) [I e8, 2-tert-butoxycarbonylamino-1-hexadecylthio-3-(3-quinoliniopropylsulfonylamino)propane iodide] | 1970 |
| CCCCCCCCCCCCCCCCSCC(CNS(=O)(=O)CCC[N+](C)(C)C)OC (stereo not drawn) [I a8, 1-hexadecylthio-2-methoxy-3-(3-trimethylammoniopropylsulfonylamino)propaneiodide] | 82100 |
| CCCCCCCCCCCCCCCCCCNC(=O)OCC(COC)CN(C(C)=O)S(=O)(=O)CCC[n+]1cccc2ccccc21 (stereo not drawn) [I k6, 3-(N-acetyl-3-quinoliniopropylsulfonylamino)-2-methoxymethyl-1-octadecylcarbamoyloxypropane iodide] | 340 |

Further lines, results first:

| IC50 [nM] | Compound |
| --- | --- |
| 1930 | CCCCCCCCCCCCCCCCCCNC(=O)SCC(CNS(=O)(=O)CCC[n+]1ccsc1)OC (stereo not drawn) [I a26, 2-methoxy-1-octadecylcarbamoylthio-3-(3-thiazoliniopropylsulfonylamino)propane iodide] |
| 1890 | CCCCCCCCCCCCCCCCCCNC(=O)OCC(CNS(=O)(=O)CCC[n+]1cscc1C)OC (stereo not drawn) [I a5] |
| 360 | CCCCCCCCCCCCCCCCCCNC(=O)SCC(CNS(=O)(=O)CCC[n+]1cccc2ccccc21)OC (stereo not drawn) [I a25, 2-methoxy-1-octadecylcarbamoylthio-3-(3-quinoliniopropylsulfonylamino)propane iodide] |
| 5200 | CCCCCCCCCCCCCCCCCCNC(=O)OCC(CNS(=O)(=O)CCC[n+]1ccccc1)OC (stereo not drawn) [I a3] |
| 330 | CCCCCCCCCCCCCCCCCCNC(=O)OCC(CNS(=O)(=O)CCC[n+]1cccc2ccccc21)OC(=O)NC (stereo not drawn) [I c3, 2-methylcarbamoyloxy-1-octadecylcarbamoyloxy-3(3-quinoliniopropylsulfonylamino)propane iodide] |
| 250 | CCCCCCCCCCCCCCCCCCNC(=O)OCC(CNS(=O)(=O)CCC[n+]1cccc2ccccc21)Oc1ccon1 (stereo not drawn) [I j3, 2-(3-isoxazolyloxy)-1-octadecylcarbamoyloxy-3-(3-quinoliniopropylsulfonylamino)propane iodide] |
| 1770 | CCCCCCCCCCCCCCCCCCNC(=O)OCC(CNS(=O)(=O)CCCC[n+]1ccsc1)OC (stereo not drawn) [I a13, 2-methoxy-1-octadecylcarbamoyloxy-3-(4-thiazoliobutylsulfonylamino)propaneiodide] |
| 650 | CCCCCCCCCCCCCCCCCCNC(=O)OCC(CNS(=O)(=O)CCC[n+]1cccc2ccccc21)OC (stereo not drawn) [I a7] |
| 533 | CCCCCCCCCCCCCCCCCCNC(=O)OCC(CNS(=O)(=O)CCC[n+]1cccc2ccccc21)NC(=O)OC (stereo not drawn) [I e5, 1-octadecylcarbamoyloxy-2-methoxycarbonylamino-3-(3-quinoliniopropylsulfonylamino)propane iodide] |
| 45400 | CCCCCCCCCCCCCCCCCCNC(=O)OCC(CNS(=O)(=O)CCC[n+]1ccncc1)OC (stereo not drawn) [I a6] |
| 1290 | CCCCCCCCCCCCCCCCCCNC(=O)OCC(CNS(=O)(=O)CCCC[n+]1cccc2ccccc21)OC (stereo not drawn) [I a14] |
| 48100 | CCCCCCCCCCCCCCCCCCNC(=O)OCC(CNS(=O)(=O)CCC[N+](C)(C)C)OC (stereo not drawn) [I a1, 2-methoxy-1-octadecylcarbamoyloxy-3-(3-trimethylammoniosulfonylamino)propane chloride] |
| 2970 | CCCCCCCCCCCCCCCCOCC(CNS(=O)(=O)CCC[n+]1ccsc1)OC (stereo not drawn) [I a11, 1-hexadecyloxy-2-methoxy-3-(3-thiazoliopropylsulfonylamino)propane iodide] |
| 13500 | CCCCCCCCCCCCCCCCCCNC(=O)OCC(CNS(=O)(=O)CCCC[n+]1ccc2ccccc2c1)OC (stereo not drawn) [I a16] |
| 64200 | CCCCCCCCCCCCCCCCCCNC(=O)OCC(CNS(=O)(=O)CCC[N+]1(C)CCOCC1)OC (stereo not drawn) [I a4] |
| 1830 | CCCCCCCCCCCCCCCCCCNC(=O)OCC(CNS(=O)(=O)CCC[n+]1cccc2ccccc21)NC(C)=O (stereo not drawn) [I g4, 2-acetamido-1-octadecylcarbamoyloxy-3-(3-quinoliniopropylsulfonylamino)propane iodide] |
| 400 | CCCCCCCCCCCCCCCCCCNC(=O)OCC(CNS(=O)(=O)CCC[n+]1cccc2ccccc21)COC (stereo not drawn) [I k5, 2-methoxymethyl-1-octadecylcarbamoyloxy-3-(3-quinoliniopropylsulfonylamino)propane iodide] |
| 5950 | CCCCCCCCCCCCCCCCCCNC(=O)OCC(CNS(=O)(=O)CC[n+]1ccsc1)OC (stereo not drawn) [I a12, 2-methoxy-1-octadecylcarbamoyloxy-3-(2-thiazolioethylsulfonylamino)propaneiodide] |
| 1890 | CCCCCCCCCCCCCCCCCCNC(=O)OCC(CNS(=O)(=O)CCC[n+]1ccsc1)OC (stereo not drawn) [I a2, 2-methoxy-1-octadecylcarbamoyloxy-3-(3-thiazoliopropylsulfonylamino)propane iodide] |

Same assay, conditions: in vitro, rabbit PRP 50-55×10^4 /μl, 37° C., PAF C16 final 20 nM added 2 minutes after compound; read-out: IC50 (concentration of the test compounds which inhibit 50% platelet aggregation)

| Compound | IC50 [nM] |
| --- | --- |
| 2-methoxy-1-octadecylcarbamoylthio-3-(4-quinoliniopropylsulfonyamino)propane chloride [I a27] | 740 |
| CCCCCCCCCCCCCCCCCCNC(=O)OCC(CNS(=O)(=O)CCCC[n+]1ccc2ccccc2c1)OC (stereo not drawn) [I a20] | 16000 |
